Results on one molecule are retold here after patent publication US12605517B1 (Belhaven BioPharma Inc., priority 2024, dated 2026).

Data set [1] is described as follows: Human Phase 1 clinical study, plasma epinephrine pharmacokinetics and bioavailability. It counts as in vivo. As to conditions: for Tmax: read-out: median Tmax (converted).
Protocol: Twelve human subjects participated in the open-label, single sequence crossover study. […] Nor did the subject participate in Treatment D.
The dry powder formulation was administered via intranasal instillation once using a nasal device (APTAR). The IM solution and materials were supplied by the study site and prepared according to the local procedures. The study drug was administered at approximately the same time on each treatment day. There was a washout period of 20 days between the nasal doses administered as treatment A and treatment D. The subjects were admitted to the clinical site the day before each treatment administration and remained on site until at least 8 hours post-dose, or when applicable, until 24 hours post-dose of the specific treatment period. The study drug was administered after at least a 10 hour fast. A standardized meal was provided approximately 4 hours after dosing.
Blood samples were collected prior to dosing at 60, 30, and 0 minutes before dosing, and after dosing at 2, 5, 7, 10, 15, 20, 25, 30, 45, 60, 90, 120, 180, 240, and 360 minutes. […] The calibration curve range of the bioanalytical method was from 10 to 10000 pg/mL. Recovery was >75% and freeze-thaw, short-term and long-term stability (584 days) were all shown to be acceptable; the analyte was stable under all conditions tested.
Noncompartmental analysis was performed on individual human subject plasma concentration-time data using nominal doses and actual blood sampling times. […] Baseline correction was accomplished using the average of the measured concentrations at nominal times of −60, −30, and 0 minutes before dosing.
Pharmacokinetic analyses were performed using the standard PK analysis software package PHOENIX® WinNonlin version 8.4.
The PK population consists of all human subjects who provided sufficient PK samples for a given treatment to allow for adequate determination of PK parameters of interest.
The nature of data set [2]: Study 101, plasma epinephrine pharmacokinetics. The following applies: human, im. It counts as in vivo. The procedure:
Each patient was provided each treatment of the trial with 72-hour washout periods between each treatment, beginning with a 3.5 mg intranasal dose, followed by a 0.3 mg intramuscular dose, followed by a 0.5 mg intramuscular dose, and concluding with a 5.5 mg intranasal dose, with a safety follow-up performed 3 to 5 days after the final dose was administered. The primary endpoints of the study were pharmacokinetic measurements and assessments of comparative bioavailability, while the secondary endpoints were safety concerns and pharmacodynamic assessments.

For orientation: Cmax means the peak of the concentration-time curve. Usually Tmax stands for the time from dosing to the highest level.

Turning to `CNC[C@H](O)c1ccc(O)c(O)c1` [Epinephrine IM, epinephrine], in data set [1] (0.3 mg IM, read-out: mean baseline-corrected Cmax), the Cmax amounted to 0.184 ng/mL. In addition, the Tmax was 48 min in data set [1] (0.3 mg IM); 48 min in data set [1] (0.5 mg IM); 41.4 min in data set [2] (0.3 mg, 0.3 mg IM, read-out: Tmax (Mean) (converted)); 48 min in data set [2] (0.3 mg, 0.3 mg IM, read-out: Tmax (Median) (converted)); 40.9 min in data set [2] (0.5 mg, 0.5 mg IM, read-out: Tmax (Mean) (converted)); 48 min in data set [2] (0.5 mg, 0.5 mg IM, read-out: Tmax (Median) (converted)).
